Reference: patent publication EP0183129A1, “Quinolonecarboxylic acid derivatives” (KYORIN PHARMACEUTICAL CO., LTD., priority 1984, dated 1986)
Converted amounts (≈) assume the structure as drawn. Where two headings read alike, the source gives them in different places.

Columns and labels:
S. pyogenes 3130 = assay: In vitro antibacterial activity, MIC (clinical isolates); assay type: cell-based; settings: Streptococcus pyogenes
[1] = system: Escherichia coli NIHJ JC-2; assay: In vitro antibacterial activity, MIC (standard strain); assay type: cell-based; settings: Escherichia coli, NIHJJC2, Escherichia coli NIHJ JC-2; 10^6 cells/ml; standard strain; read-out: MIC
B. fragilis 0558 = assay: as above; assay type: cell-based, Bacteroides fragilis; settings: Bacteroides fragilis, 0558, B. fragilis 0558; 10^6 cells/ml; standard strain; read-out: MIC
[2] = system: Klebsiella pneumoniae KY(GN)6445; assay: as above; assay type: cell-based; settings: Klebsiella pneumoniae KY(GN)6445; 10^6 cells/ml; standard strain; read-out: MIC
S. aureus Smith = assay: as above; assay type: cell-based, Staphylococcus aureus; settings: Staphylococcus aureus, S. aureus Smith, 10^6 cells/ml, standard strain
[3] = system: Enterobacter cloacae IID 977; assay: as above; assay type: cell-based; settings: Enterobacter cloacae, IID977, Enterobacter cloacae IID 977; 10^6 cells/ml; standard strain; read-out: MIC
S. pneumoniae IID 552 = assay: as above; assay type: cell-based; settings: Streptococcus pneumoniae, IID552; S. pneumoniae IID 552; 10^6 cells/ml; standard strain; read-out: MIC
S. marcescens GN 7577 = assay: as above; assay type: cell-based; settings: Serratia marcescens, GN7577
S. pyogenes 3102 = assay: In vitro antibacterial activity, MIC (clinical isolates); assay type: cell-based; settings: Streptococcus pyogenes
E. coli ATCC 10536 = assay: In vitro antibacterial activity, MIC (standard strain); assay type: cell-based; settings: Escherichia coli, ATCC10536; E. coli ATCC 10536; 10^6 cells/ml; standard strain; read-out: MIC
[4] = system: Streptococcus pyogenes S-8; assay: as above; assay type: cell-based; settings: S8
C. ramosum = assay: as above; assay type: cell-based; settings: Thomasclavelia ramosa; C. ramosum; 10^6 cells/ml; standard strain; read-out: MIC
S. pneumoniae 15 = assay: In vitro antibacterial activity, MIC (clinical isolates); assay type: cell-based; settings: Streptococcus pneumoniae; S. pneumoniae 15; 10^6 cells/ml; clinical isolate; read-out: MIC
[5] = system: Salmonella entritidis IID 604; assay: In vitro antibacterial activity, MIC (standard strain); assay type: cell-based; settings: IID604; Salmonella entritidis IID 604; 10^6 cells/ml; standard strain; read-out: MIC
S. agalactiae 4470 = assay: In vitro antibacterial activity, MIC (clinical isolates); assay type: cell-based; settings: Streptococcus agalactiae; S. agalactiae 4470; 10^6 cells/ml; clinical isolate; read-out: MIC
[6] = system: Fusobacterium varium KYA 8501; assay: In vitro antibacterial activity, MIC (standard strain); assay type: cell-based; settings: Fusobacterium varium, KYA8501, Fusobacterium varium KYA 8501; 10^6 cells/ml; standard strain; read-out: MIC
S. faecalis 49 = assay: In vitro antibacterial activity, MIC (clinical isolates); assay type: cell-based; settings: Enterococcus faecalis; S. faecalis 49; 10^6 cells/ml; clinical isolate; read-out: MIC
S. agalactiae 4468 = assay: as above; assay type: cell-based; settings: Streptococcus agalactiae; S. agalactiae 4468; 10^6 cells/ml; clinical isolate; read-out: MIC
[7] = system: Morganella morganii IID 602; assay: In vitro antibacterial activity, MIC (standard strain); assay type: cell-based; settings: IID602; Morganella morganii IID 602; 10^6 cells/ml; standard strain; read-out: MIC
S. faecalis 214 = assay: In vitro antibacterial activity, MIC (clinical isolates); assay type: cell-based; settings: Enterococcus faecalis; S. faecalis 214; 10^6 cells/ml; clinical isolate; read-out: MIC
[8] = system: Clostridium perfringens KYA 13123; assay: microbe, parasite or virus in culture; assay type: cell-based; settings: KYA13123
S. agalactiae 4049 = assay: In vitro antibacterial activity, MIC (clinical isolates); assay type: cell-based; settings: Streptococcus agalactiae; S. agalactiae 4049; 10^6 cells/ml; clinical isolate; read-out: MIC
S. agalactiae 4368 = assay: as above; assay type: cell-based; settings: Streptococcus agalactiae; S. agalactiae 4368; 10^6 cells/ml; clinical isolate; read-out: MIC
S. faecalis 402 = assay: as above; assay type: cell-based; settings: Enterococcus faecalis; S. faecalis 402; 10^6 cells/ml; clinical isolate; read-out: MIC
S. pyogenes 3107 = assay: as above; assay type: cell-based; settings: Streptococcus pyogenes
P. aeruginosa IID 1210 = assay: In vitro antibacterial activity, MIC (standard strain); assay type: cell-based; settings: Pseudomonas aeruginosa, IID1210; P. aeruginosa IID 1210; 10^6 cells/ml; standard strain; read-out: MIC
[9] = system: Serratia marcescens IID 618; assay: as above; assay type: cell-based; settings: Serratia marcescens, IID618, Serratia marcescens IID 618; 10^6 cells/ml; standard strain; read-out: MIC
E. coli ML 4707 = assay: as above; assay type: cell-based; settings: Escherichia coli, ML4707; E. coli ML 4707; 10^6 cells/ml; standard strain; read-out: MIC
[10] = system: Proteus vulgaris IFO 3167; assay: as above; assay type: cell-based; settings: IFO3167; Proteus vulgaris IFO 3167; 10^6 cells/ml; standard strain; read-out: MIC
P. aeruginosa IFO 12689 = assay: as above; assay type: cell-based, Pseudomonas aeruginosa; settings: Pseudomonas aeruginosa, IFO12689; P. aeruginosa IFO 12689; 10^6 cells/ml; standard strain; read-out: MIC
[11] = system: Acinetobacter anitratus IID 876; assay: as above; assay type: cell-based; settings: Acinetobacter calcoaceticus, IID876, Acinetobacter anitratus IID 876; 10^6 cells/ml; standard strain; read-out: MIC

CCn1cc(C(=O)O)c(=O)c2cc(F)c(N3CCNCC3)cc21 [NFLX, Norfloxacin, reference compound]
MIC (S. pyogenes 3130): 1.56 µg/mL (≈ 4.89 µM) | MIC [1]: 0.025 µg/mL (≈ 0.0783 µM) | MIC (B. fragilis 0558): 25 µg/mL (≈ 78.3 µM) | MIC [2]: 0.05 µg/mL (≈ 0.157 µM) | MIC (S. aureus Smith): 1.56 µg/mL (≈ 4.89 µM) | MIC [3]: 0.1 µg/mL (≈ 0.313 µM) | MIC (S. pneumoniae IID 552): 3.13 µg/mL (≈ 9.8 µM) | MIC (S. marcescens GN 7577): 1.56 µg/mL (≈ 4.89 µM) | MIC (S. pyogenes 3102; 3102): 1.56 µg/mL (≈ 4.89 µM) | MIC (E. coli ATCC 10536): 0.05 µg/mL (≈ 0.157 µM) | MIC ([4]; Streptococcus pyogenes): 1.56 µg/mL (≈ 4.89 µM) | MIC (C. ramosum): 50 µg/mL (≈ 157 µM) | MIC (S. pneumoniae 15): 3.13 µg/mL (≈ 9.8 µM) | MIC [5]: 0.1 µg/mL (≈ 0.313 µM) | MIC (S. agalactiae 4470): 6.25 µg/mL (≈ 19.6 µM) | MIC [6]: 100 µg/mL (≈ 313 µM) | MIC (S. faecalis 49): 3.13 µg/mL (≈ 9.8 µM) | MIC (S. agalactiae 4468): 3.13 µg/mL (≈ 9.8 µM) | MIC [7]: 0.05 µg/mL (≈ 0.157 µM) | MIC (S. faecalis 214): 3.13 µg/mL (≈ 9.8 µM) | MIC [8]: 1.56 µg/mL (≈ 4.89 µM) | MIC (S. agalactiae 4049): 6.25 µg/mL (≈ 19.6 µM) | MIC (S. agalactiae 4368): 3.13 µg/mL (≈ 9.8 µM) | MIC (S. faecalis 402): 6.25 µg/mL (≈ 19.6 µM) | MIC (S. pyogenes 3107; 3107): 1.56 µg/mL (≈ 4.89 µM) | MIC (P. aeruginosa IID 1210): 3.13 µg/mL (≈ 9.8 µM) | MIC [9]: 0.05 µg/mL (≈ 0.157 µM) | MIC (E. coli ML 4707): 0.05 µg/mL (≈ 0.157 µM) | MIC [10]: 0.025 µg/mL (≈ 0.0783 µM) | MIC (P. aeruginosa IFO 12689): 0.78 µg/mL (≈ 2.44 µM) | MIC [11]: 3.13 µg/mL (≈ 9.8 µM)

CCNCC1CCN(c2c(F)cc3c(=O)c(C(=O)O)cn(CC)c3c2F)C1 (centres unmarked) [Ref.1, 1-Ethyl-7-(3-ethylaminomethyl-1-pyrrolidinyl)-6,8-difluoro-1,4-dihydro-4-oxo-3-quinolinecarboxylic acid, reference compound]
MIC (S. pyogenes 3130; read-out: MIC): 0.2 µg/mL (≈ 0.527 µM) | MIC [1]: 0.1 µg/mL (≈ 0.264 µM) | MIC (B. fragilis 0558): 6.25 µg/mL (≈ 16.5 µM) | MIC [2]: 0.2 µg/mL (≈ 0.527 µM) | MIC (S. aureus Smith; read-out: MIC): 0.1 µg/mL (≈ 0.264 µM) | MIC [3]: 0.2 µg/mL (≈ 0.527 µM) | MIC (S. pneumoniae IID 552): 0.2 µg/mL (≈ 0.527 µM) | MIC (S. marcescens GN 7577; S. marcescens GN 7577, 10^6 cells/ml, standard strain, read-out: MIC): 6.25 µg/mL (≈ 16.5 µM) | MIC (S. pyogenes 3102; S. pyogenes 3102, 10^6 cells/ml, clinical isolate, read-out: MIC): 0.2 µg/mL (≈ 0.527 µM) | MIC (E. coli ATCC 10536): 0.1 µg/mL (≈ 0.264 µM) | MIC ([4]; Streptococcus pyogenes S-8, 10^6 cells/ml, standard strain, read-out: MIC): 0.2 µg/mL (≈ 0.527 µM) | MIC (C. ramosum): 6.25 µg/mL (≈ 16.5 µM) | MIC (S. pneumoniae 15): 0.2 µg/mL (≈ 0.527 µM) | MIC [5]: 0.39 µg/mL (≈ 1.03 µM) | MIC (S. agalactiae 4470): 0.39 µg/mL (≈ 1.03 µM) | MIC [6]: 6.25 µg/mL (≈ 16.5 µM) | MIC (S. faecalis 49): 0.39 µg/mL (≈ 1.03 µM) | MIC (S. agalactiae 4468): 0.39 µg/mL (≈ 1.03 µM) | MIC [7]: 0.78 µg/mL (≈ 2.06 µM) | MIC (S. faecalis 214): 0.39 µg/mL (≈ 1.03 µM) | MIC [8]: 1.56 µg/mL (≈ 4.11 µM) | MIC (S. agalactiae 4049): 0.39 µg/mL (≈ 1.03 µM) | MIC (S. agalactiae 4368): 0.2 µg/mL (≈ 0.527 µM) | MIC (S. faecalis 402): 0.78 µg/mL (≈ 2.06 µM) | MIC (S. pyogenes 3107; S. pyogenes 3107, 10^6 cells/ml, clinical isolate, read-out: MIC): 0.1 µg/mL (≈ 0.264 µM) | MIC (P. aeruginosa IID 1210): 12.5 µg/mL (≈ 32.9 µM) | MIC [9]: 0.39 µg/mL (≈ 1.03 µM) | MIC (E. coli ML 4707): 0.1 µg/mL (≈ 0.264 µM) | MIC [10]: 0.05 µg/mL (≈ 0.132 µM) | MIC (P. aeruginosa IFO 12689): 6.25 µg/mL (≈ 16.5 µM) | MIC [11]: 0.78 µg/mL (≈ 2.06 µM)
